Reference: patent publication US9006238B2, “Pyrazolo pyridine derivatives as NADPH oxidase inhibitors” (Genkyotex SA, priority 2008, dated 2015)

What was measured:
NOX [1] = molecular target: T1, NOX (Homo sapiens, UniProt P04839); assay: Amplex Red measurement of extracellular hydrogen peroxide (NOX activity) using DMSO-differentiated HL60 cells; assay type: cell-based; conditions: for IC50 / Inhibition (%) of NOX activity: DMSO-differentiated HL60 cells; for Inhibition (%) of NOX activity: test concentration not given
T1 construct: HL60 differentiation to the neutrophil phenotype was triggered by adding Me2SO; endogenous in cells; host or cells: HL-60 cells differentiated with DMSO (1.25% v/v, 6 days) to the neutrophil phenotype
T1 sequence (P04839 1-570): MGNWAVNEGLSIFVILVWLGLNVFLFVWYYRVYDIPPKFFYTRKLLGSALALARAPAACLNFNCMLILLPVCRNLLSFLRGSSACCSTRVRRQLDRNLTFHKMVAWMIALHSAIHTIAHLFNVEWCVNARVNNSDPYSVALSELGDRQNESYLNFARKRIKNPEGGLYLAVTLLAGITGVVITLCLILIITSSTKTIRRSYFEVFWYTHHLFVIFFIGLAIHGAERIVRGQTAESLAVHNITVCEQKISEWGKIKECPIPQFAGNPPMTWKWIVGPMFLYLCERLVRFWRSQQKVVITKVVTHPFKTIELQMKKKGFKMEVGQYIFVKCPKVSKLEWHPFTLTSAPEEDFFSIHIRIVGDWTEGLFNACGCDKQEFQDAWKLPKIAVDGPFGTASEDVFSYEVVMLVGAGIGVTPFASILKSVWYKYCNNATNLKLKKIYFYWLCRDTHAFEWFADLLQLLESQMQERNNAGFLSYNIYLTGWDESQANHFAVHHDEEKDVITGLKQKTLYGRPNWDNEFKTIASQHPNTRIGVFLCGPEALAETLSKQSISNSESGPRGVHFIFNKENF
T1 sequence (P13498 1-195 partner): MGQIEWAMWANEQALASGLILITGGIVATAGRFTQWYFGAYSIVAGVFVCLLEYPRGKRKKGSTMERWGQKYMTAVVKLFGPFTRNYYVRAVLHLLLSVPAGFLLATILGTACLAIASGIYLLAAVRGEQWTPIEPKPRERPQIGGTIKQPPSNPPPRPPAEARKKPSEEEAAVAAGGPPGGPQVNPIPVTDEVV
Method: (§1) The activity of the compounds according to the invention may be tested for their activity in the inhibition or reduction of formation of reactive oxygen species (ROS) from oxygen in cells. The activity of the compounds is tested in the following cell cultures by different techniques such as nitroblue tetrazolium, Amplex Red, Chemiluminescence (Luminol) and 2′,7′-dichlorodihydrofluorescein diacetate (H2DCF-DA) according to the protocols detailed below.
Human acute myeloid leukemia cell line HL-60 was cultured in RPMI 1640 (Invitrogen) supplemented with 10% heat-inactivated calf serum, 2 mM glutamine, 100 U/mL penicillin (Sigma), and 100 μg streptomycin (Sigma) at 37° C. under a humidified atmosphere of 5% CO2. HL60 differentiation to the neutrophil phenotype was triggered by adding Me2SO (final concentration 1.25% v/v for 6 days) to the culture medium.
(§2) Extracellular hydrogen peroxide was measured using Amplex UltraRed (Molecular Probes). Cells were trypsinized (1× Trypsin-EDTA), collected by centrifugation, and resuspended in HBSS supplemented with 1% glucose. Cells were seeded into black 96-well plates at a density of 50,000 cells in 200 μl testing buffer (HBSS 1% glucose containing 0.005 U/mL horseradish peroxidase (Roche) and 50 μM Amplex Red in the presence or absence of compounds according to the invention. As a control, DPI was included at a final concentration of 10 μM The plates were placed in the fluorescent Optima Fluorescent plate reader and kept at 37° C. during 20 min. Fluorescence was measured for […] with excitation and emission wavelengths of 544 nm and 590 nm respectively. NOX activities were expressed as % of the activity in control cells. Residual activity of DPI-treated cells was usually <10%.
The Table 2 below summarizes the percentage of inhibition of NOX activity as measured by Amplex Red using DMSO-differentiated HL60 cells as described above:
The Table 3 below summarizes the IC50 of NOX activity as measured by Amplex Red using DMSO-differentiated HL60 cells as described above: […]

NOX [2] = assay: Chemiluminescence (luminol) measurement of ROS in cell cultures; assay type: cell-based, human; conditions: 60 minutes at 37° C.
Method: as §1, §2
ROS was measured using the chemiluminescent probe luminol. […]

NOX [3] = assay: Nitroblue tetrazolium (NBT) test of intracellular and extracellular superoxide in cell cultures; assay type: cell-based, human; conditions: DPI final concentration 10 μM, 2.5 h
Method: as §1
Human microglia cell line (HMC3, human microglia clone 3) (Janabi et al., 1995, Neurosci. Lett. 195:105) were cultured in MEM (Eagle's minimum essential medium) containing 10% FBS with 50 U/ml penicillin G sodium 50 μg/ml streptomycin sulfate, and incubated at 37° C. for 24 hours. IFN-γ (human IFN-γ, Roche. 11 040 596 001) was added to the culture medium for a final concentration of 10 ng/ml 24 h, before detection of O2^− formation. […]
Intracellular and extracellular superoxide was measured by a colorimetric technique using a quantitative nitroblue tetrazolium (NBT) test. SOD-inhibitable conversion of NBT to formazan, a fine blue precipitate, in the presence of superoxide anion was measured using Fluostar Optima spectrometer (BMG labtech). […] The absorption was measured at 630 nm. For calculation, the absorbance at 630 nm was normalized for each individual well. […] NOX activities were expressed as % of the activity in control cells. […]

NOX [4] = assay: H2DCF-DA (DCF fluorescence) measurement of ROS in HUVEC stimulated with TGF-β; assay type: cell-based, human; conditions: TGF-β stimulation
Method: as §1, with “below. […]” for “below.”
HUVEC were plated on coverslips and made quiescent overnight in 0.5% BSA before stimulation with TGF-β. […] DCF fluorescence was visualized at an excitation wavelength of 488 nm and emission at 515 to 540 nm. […] For calculation, the absorbance at […] was normalized to absorbance at […] for each individual well. […] NOX activities were expressed as % of the activity in control cells. […]

| IC50 (NOX [1]) [µM] | Inhibition (%) of NOX activity (NOX [1]) [%] | Residual activity of DPI-treated cells (NOX activity as % of the activity in control cells) (NOX [1]; DPI final concentration 10 μM) [%] | Compound | Residual activity of DPI-treated cells (NOX activity as % of the activity in control cells) (NOX [2]) [%] | Residual activity of DPI-treated cells (NOX activity as % of the activity in control cells) (NOX [3]) [%] | Residual activity of DPI-treated cells (NOX activity as % of the activity in control cells) (NOX [4]) [%] |
| --- | --- | --- | --- | --- | --- | --- |
| < 5 | 72 |  | COCCn1[nH]c2cc(=O)n(CCc3ccccn3)c(C)c2c1=O [Compound 15, 2-(2-Methoxyethyl)-4-Methyl-5-(2-Pyridin-2-Ylethyl)-1H-Pyrazolo[4,3-c]Pyridine-3,6(2H,5H)-Dione] |  |  |  |
| < 5 | 56 |  | Cc1c2c(=O)n(C3CCCCC3)[nH]c2cc(=O)n1Cc1ccccc1CN1CCOCC1 [Compound 13, 2-Cyclohexyl-4-Methyl-5-[2-(Morpholin-4-Ylmethyl)Benzyl]-1H-Pyrazolo[4,3-c]Pyridine-3,6(2H,5H)-Dione] |  |  |  |
| < 5 | 78 |  | CC(=O)Nc1cccc(Cn2c(C)c3c(=O)n(CCc4ccccc4)[nH]c3cc2=O)c1 [Compound 28, N-(3-{[4-methyl-3,6-dioxo-2-(2-phenylethyl)-1,2,3,6-tetrahydro-5H-pyrazolo[4,3-c]pyridin-5-yl]methyl}phenyl) acetamide] |  |  |  |
| < 5 | 74 |  | Cc1c2c(=O)n(C)[nH]c2cc(=O)n1CCN1CCOCC1 [Compound 16, 2,4-Dimethyl-5-(2-Morpholin-4-Ylethyl)-1H-Pyrazolo[4,3-c]Pyridine-3,6(2H,5H)-Dione] |  |  |  |
|  |  | < 10 | c1ccc([I+]c2ccccc2)cc1 [DPI, Diphenyl-iodonium] | < 10 | < 10 | < 10 |
| < 5 | 79 |  | Cc1c2c(=O)n(CCOc3ccc(Cl)cc3)[nH]c2cc(=O)n1Cc1ccccn1 [Compound 24, 2-[2-(4-chlorophenoxy)ethyl] 4-methyl-5-(pyridin-2-ylmethyl)-1H-pyrazolo[4,3-c] pyridine-3,6(2H,5H)-dione] |  |  |  |
| < 5 | 95 |  | COCCn1[nH]c2cc(=O)n(CCOC)c(-c3ccc(Cl)cc3)c2c1=O [Compound 58, 4-(4-chlorophenyl)-2,5-bis(2-methoxyethyl)-1H-pyrazolo[4,3-c]pyridine-3,6 (2H,5H)-dione] |  |  |  |
